# Test results published in publication PMC12935919 (Frontiers in Pharmacology, 2026).
# No end group written: not given here.
# Assays:
# [1] = tested on: SAMP8 mice; test: Sirius Red collagen deposition in muscle; assay type: in vivo, mouse; settings: normalized to SAMR1 = 100%, oral gavage 45 weeks, 20 mg in 200 µL PBS, n = 5, mean ± SD
# Experimental: (§1) Eight week old male senescence-accelerated mouse-prone 8 (SAMP8)/Ta Slc and senescence-accelerated mouse-resistant 1 (SAMR1)/Ta Slc mice (weighing 30 ± 2 g) were purchased from Central Lab Animal Inc. (Seoul, Korea) and housed at 24 °C in cages under a 12/12 h light/dark cycle with ad libitum access to food and water. […] Mice in all groups were dosed once daily by oral gavage for 45 weeks. […] This study was approved by the Institutional Animal Care and Use Committee (approval number CG-R22-001).
# (§2) Quadriceps (Quad) and gastrocnemius (Gas) muscle tissues were harvested and immersion-fixed in 10% neutral buffered formalin at 4 °C for 24 h. Following fixation, the tissues were dehydrated through a graded series of ethanol, cleared in xylene, and embedded in paraffin. Paraffin-embedded tissues were sectioned at a thickness of 5 μm. The tissue sections mounted on slides were deparaffinized, washed, and stained with hematoxylin (Dako, S3309) and eosin (Thermo Fisher Scientific, #6766007) (H&E). To assess the degree of muscle fibrosis, they were also stained using a Sirius Red Stain Kit (Abcam, ab150681) according to the manufacturer’s instructions. […] For each animal, three images were randomly selected from the stained sections, and the total stained area per image, rather than individual muscle fibers, was quantified using ImageJ software.
# [2] = tested on: SAMP8 mice; test: H&E myofiber area in muscle; assay type: in vivo, mouse; settings: oral gavage once daily 45 weeks, 20 mg Myoki in 200 µL PBS, n = 5, vs SAMP8 group
# Experimental: as §1, §2
# [3] = tested on: Fc gamma-tagged myostatin/GDF-8; test: ELISA-based receptor binding assay; parameters: species or system human
# Experimental: Plates were washed with PBST and blocked with 3% (w/v) BSA for 2 h at room temperature. They were then incubated for 2 h with Fc gamma-tagged myostatin/GDF-8 (Sino Biological, #50441-M01H) diluted in PBST. After another PBST wash, plates were treated with HRP-linked Anti-IgG Fc gamma (CST, #32935S, 1:1,000) for 2 h. Finally, color was developed with TMB (Sigma, #T0440), the reaction stopped with 1 M H2SO4, and absorbance was measured at 450 nm.
# [4] = tested on: C2C12 cells; test: Myotube morphology during differentiation (microscopy, ImageJ); assay type: cell-based
# Experimental: (§3) To induce C2C12 myotube differentiation, myoblasts were seeded in 6-well plates at 5 × 10^5 cells per well. Once reaching 90% confluency, they were cultured in DMEM supplemented with 2% horse serum (Thermo Fisher Scientific) and 1% penicillin-streptomycin. […] Differentiation was observed using an optical microscope (LEICA, 100×). Myotube morphology (length and diameter) was quantified in ImageJ (NIH) using the same images: myotube length was measured by tracing the long axis of each myotube (end-to-end), and myotube diameter was measured as the short-axis width at three positions along each myotube; the mean of the three width values was recorded as the diameter. For each experimental group, three randomly captured images (fields) were analyzed, and at least 15–20 myotubes per image were quantified under identical imaging settings.
# [5] = tested on: C2C12 cells; test: Western blot of differentiation markers and myofibrillar proteins; assay type: cell-based
# Experimental: as §3
# Treated C2C12 cells (5 × 10^5 cells/well) were harvested in lysis buffer (Sigma-Aldrich, 2910) and centrifuged at 12,000 g for 10 min; proteins in the supernatant were collected. Protein concentrations were measured using the BCA Protein Assay Kit (Thermo Fisher Scientific). Each 20 μg sample was separated using 10% SDS–PAGE and transferred onto a polyvinylidene fluoride membrane (Millipore, Burlington, MA, USA). Non-specific binding was blocked with 5% non-fat dry milk for 1 h. The membranes were incubated overnight with primary antibodies: Anti-Myf5 (Abcam, ab125078), Anti-Myf6 (Abcam, ab182842), Anti-MyoD (Santa Cruz, sc-377460), Anti-MyoG (Santa Cruz, sc-52903), Anti-α-actinin (Santa Cruz, sc-17829), Anti-MYH3 (Santa Cruz, sc-53091), Anti-p-mTOR (Ser2448) (CST, #5536), Anti-p-Akt (Ser473) (CST, #9271), Anti-p-p70 S6 Kinase (Thr389) (CST, #9205), Anti-myostatin (Abcam, ab124721), Anti-atrogin-1/MAFbx (Santa Cruz, sc-166806), and Anti-MuRF1 (Santa Cruz, sc-398608). Membranes were then incubated for 1 h with HRP-conjugated secondary antibodies. Blot images were captured with the ECL system (Amersham, UK) and quantified using ImageJ.
# [6] = tested on: C2C12 cells; test: RT-PCR / RT-qPCR of MRF genes; assay type: cell-based; settings: Day 3; Myf6, MyoD, MyoG; normalized to GAPDH
# Experimental: For RT-PCR, the PCR products were electrophoresed in 1.5% agarose gel containing EtBr at 100 V for 30 min and visualized using a ChemiDocTM XRS imaging system (Bio-Rad, Hercules, CA, USA). RT-qPCR was performed using SYBR Green PCR Master Mix (Applied Biosystems, Foster City, CA, USA) for quantitative analysis. Glyceraldehyde-3-phosphate dehydrogenase (GAPDH) was used as a housekeeping gene for normalization. Relative quantification (RQ) was calculated using the ΔΔCt method, and data were expressed as RQ values by comparing the threshold cycle (Ct) of each target gene to that of GAPDH. The linearity and amplification efficiency of the PCR reactions were evaluated using serial dilutions of cDNA, and all reactions were performed in triplicate. The primer sequences used were as follows: Myf5 forward ([NT]), Myf5 reverse ([NT]), Myf6 forward ([NT]), Myf6 reverse ([NT]), MyoD forward ([NT]), MyoD reverse ([NT]), MyoG forward ([NT]), MyoG reverse ([NT]).
# [7] = tested on: patients with muscle atrophy (ICD-10-CM code: M62.5); test: Clinical trial: safety, treatment emergent adverse events; assay type: in vivo, human; settings: 12 weeks, 200 mg/day, N=40
# Source text: All participants provided written informed consent prior to any study procedures. Key eligibility criteria included adults aged ≥18 years with low muscle mass by DEXA (men: <7.0 kg/m^2; women: <5.4 kg/m^2) and either low handgrip strength (men: <28 kg; women: <18 kg) or low physical performance (6-m walk speed <1.0 m/s). Major exclusion criteria included uncontrolled systemic disease, musculoskeletal or neurological disorders, recent anabolic steroid use, and concomitant medications known to affect protein metabolism; full inclusion and exclusion criteria are provided in Supplementary Table S1. Of 89 patients screened, seven were screen failures and two withdrew prior to randomization; 80 eligible participants were enrolled and proceeded to the baseline/randomization visit (mean age 38.83 ± 9.91 years; range 23–69).
# The study was double-blind; participants, investigators, and study staff were unaware of treatment allocation throughout the trial.
# Efficacy endpoints were evaluated as changes from baseline to Week 12; efficacy analyses were conducted in the per-protocol population, and safety analyses included all randomized participants who received at least one dose of study product (Supplementary Figure S2). Of 80 randomized participants, 75 completed the study.
substance,measurement,setting,value
EAEYEHL-OH [Myoki],"collagen deposition, quadriceps","[1]; untreated SAMP8 185% ± 10.61%, difference not statistically significant",151% ± 28.82%
same,"collagen deposition, gastrocnemius",[1]; untreated SAMP8 291% ± 19.72%,194% ± 22.84%
same,"myofiber area, gastrocnemius",[2],significantly increased
same,"myofiber area, quadriceps",[2],significantly increased
same,binding to myostatin,"[3]; Myoki coated at 125, 250, 500, and 1,000 μM",directly and concentration-dependently binds to myostatin
same,myostatin binding compared to the control,"[3]; Myoki-coated plates, ≥62.5 μM, absorbance 450 nm",more than 150%
same,increase in myotube length compared to the control,"[4]; Day 6, 100 μM, differentiation medium (2% horse serum), mean ± SD",200% ± 33.88%
same,myotube length,"[4]; Days 0-6, Myoki 1, 10 and 100 μM",increased concentration- and time-dependently
same,MYH3 protein expression,"[5]; Day 3, Western blot, vs DM",significant increase
same,MyoD protein expression,"[5]; Day 3, Western blot, vs DM",significant increase
same,MyoG protein expression,"[5]; Day 3, Western blot, vs DM",significant increase
same,alpha-actinin protein expression,"[5]; Day 3, Western blot, vs DM",significant increase
same,increase in MYH3 expression,"[5]; Day 6, 100 μM, Western blot",307%
same,increase in alpha-actinin expression,"[5]; Day 6, 100 μM, Western blot",818%
same,MRF gene expression (mRNA),[6],significant increase
same,TEAEs related to the study product,[7],No TEAEs were assessed as related to the study product
same,serious TEAEs,[7],no serious TEAEs were reported
same,severity and outcome of TEAEs,[7],all TEAEs were mild in severity and resolved
